Species on record: Rattus norvegicus
Test: DrugMatrix - Regimen: Daily Repeat
Format: toxicity, organism-based, Sprague-Dawley
Set-up: regimen Daily Repeat, gender Male, age 6-8 weeks
Conditions: in vivo, po, route oral GAVAGE, vehicle .5 % CMC; for ABSOLUTE BASOPHIL / ABSOLUTE EOSINOPHIL / ABSOLUTE LYMPHOCYTE / ABSOLUTE MONOCYTE / ABSOLUTE SEGMENTED NEUTROPHIL / BASOPHIL / EOSINOPHIL / ERYTHROCYTE COUNT / HEMATOCRIT / HEMOGLOBIN / LEUKOCYTE COUNT / LYMPHOCYTE / MEAN CORPUSCULAR HEMOGLOBIN / MEAN CORPUSCULAR HEMOGLOBIN CONCENTRATION / MEAN CORPUSCULAR VOLUME / MONOCYTE / NEUTROPHIL / NUCLEATED RED BLOOD CELLS / PLATELET COUNT: tissue Blood; for ALANINE AMINOTRANSFERASE / ALBUMIN / ALKALINE PHOSPHATASE / ASPARTATE AMINOTRANSFERASE / BLOOD UREA NITROGEN / CARBON DIOXIDE / CHLORIDE / CHOLESTEROL / CREATINE PHOSPHOKINASE / CREATININE / GLUCOSE / LACTATE DEHYDROGENASE / LIPASE / PHOSPHORUS / POTASSIUM / SODIUM / TOTAL BILIRUBIN / TOTAL PROTEIN / URIC ACID: tissue Plasma
[1] = 75 mg/kg, 72 h, dose level Low, time 3 day
[2] = 75 mg/kg, 120 h, dose level Low, time 5 day
[3] = 750 mg/kg, 72 h, dose level High, time 3 day
[4] = 750 mg/kg, 120 h, dose level High, time 5 day

## CC(=O)OC[C@H]1O[C@@H](n2ncc(=O)[nH]c2=O)[C@H](OC(C)=O)[C@@H]1OC(C)=O [AZARIBINE]
[1]
  ABSOLUTE BASOPHIL: 0 CELLS/uL
  ABSOLUTE EOSINOPHIL: 0 CELLS/uL
  ABSOLUTE LYMPHOCYTE: 12537.67 CELLS/uL
  ABSOLUTE MONOCYTE: 196 CELLS/uL
  ABSOLUTE SEGMENTED NEUTROPHIL: 1699.67 CELLS/uL
  BASOPHIL: 0%
  EOSINOPHIL: 0%
  ERYTHROCYTE COUNT: 5.31 x10E6/uL
  HEMATOCRIT: 32.6%
  HEMOGLOBIN: 12.37 G/DL
  LEUKOCYTE COUNT: 14.43 x10E3/uL
  LYMPHOCYTE: 87%
  MEAN CORPUSCULAR HEMOGLOBIN: 23.3 pg
  MEAN CORPUSCULAR HEMOGLOBIN CONCENTRATION: 37.93 G/DL
  MEAN CORPUSCULAR VOLUME: 61.4 fL
  MONOCYTE: 1.33%
  NEUTROPHIL: 11.67%
  NUCLEATED RED BLOOD CELLS: 0 /100WBC
  PLATELET COUNT: 1235.33 x10E3/uL
  ALANINE AMINOTRANSFERASE: 37 u/L
  ALBUMIN: 4.13 G/DL
  ALKALINE PHOSPHATASE: 384.67 u/L
  ASPARTATE AMINOTRANSFERASE: 74.67 u/L
  BLOOD UREA NITROGEN: 16.33 mg/dL
  CARBON DIOXIDE: 24.33 mmol/L
  CHLORIDE: 100.67 MEQ/L
  CHOLESTEROL: 73 mg/dL
  CREATINE PHOSPHOKINASE: 254.33 u/L
  CREATININE: 0.25 mg/dL
  GLUCOSE: 157.67 mg/dL
  LACTATE DEHYDROGENASE: 151 u/L
  LIPASE: 10.33 u/L
  PHOSPHORUS: 12.53 mg/dL
  POTASSIUM: 5.81 MEQ/L
  SODIUM: 141.13 MEQ/L
  TOTAL BILIRUBIN: 0.17 mg/dL
  TOTAL PROTEIN: 6.2 G/DL
  URIC ACID: 1.1 mg/dL
[2]
  ABSOLUTE BASOPHIL: 0 CELLS/uL
  ABSOLUTE EOSINOPHIL: 42.67 CELLS/uL
  ABSOLUTE LYMPHOCYTE: 10939.33 CELLS/uL
  ABSOLUTE MONOCYTE: 627 CELLS/uL
  ABSOLUTE SEGMENTED NEUTROPHIL: 1691 CELLS/uL
  BASOPHIL: 0%
  EOSINOPHIL: 0.33%
  ERYTHROCYTE COUNT: 5.34 x10E6/uL
  HEMATOCRIT: 32.93%
  HEMOGLOBIN: 12.57 G/DL
  LEUKOCYTE COUNT: 13.3 x10E3/uL
  LYMPHOCYTE: 82.33%
  MEAN CORPUSCULAR HEMOGLOBIN: 23.53 pg
  MEAN CORPUSCULAR HEMOGLOBIN CONCENTRATION: 38.17 G/DL
  MEAN CORPUSCULAR VOLUME: 61.67 fL
  MONOCYTE: 4.67%
  NEUTROPHIL: 12.67%
  NUCLEATED RED BLOOD CELLS: 0 /100WBC
  PLATELET COUNT: 932 x10E3/uL
  ALANINE AMINOTRANSFERASE: 43.33 u/L
  ALBUMIN: 3.93 G/DL
  ALKALINE PHOSPHATASE: 273 u/L
  ASPARTATE AMINOTRANSFERASE: 76 u/L
  BLOOD UREA NITROGEN: 16.67 mg/dL
  CARBON DIOXIDE: 33 mmol/L
  CHLORIDE: 95.33 MEQ/L
  CHOLESTEROL: 74 mg/dL
  CREATINE PHOSPHOKINASE: 309 u/L
  CREATININE: 0.2 mg/dL
  GLUCOSE: 150 mg/dL
  LACTATE DEHYDROGENASE: 226 u/L
  LIPASE: 10.33 u/L
  PHOSPHORUS: 12.03 mg/dL
  POTASSIUM: 6.04 MEQ/L
  SODIUM: 140.6 MEQ/L
  TOTAL BILIRUBIN: 0.1 mg/dL
  TOTAL PROTEIN: 5.93 G/DL
  URIC ACID: 1.33 mg/dL
[3]
  ABSOLUTE BASOPHIL: 0 CELLS/uL
  ABSOLUTE EOSINOPHIL: 37.33 CELLS/uL
  ABSOLUTE LYMPHOCYTE: 11597.33 CELLS/uL
  ABSOLUTE MONOCYTE: 87.33 CELLS/uL
  ABSOLUTE SEGMENTED NEUTROPHIL: 844.67 CELLS/uL
  BASOPHIL: 0%
  EOSINOPHIL: 0.33%
  ERYTHROCYTE COUNT: 4.98 x10E6/uL
  HEMATOCRIT: 31.27%
  HEMOGLOBIN: 11.73 G/DL
  LEUKOCYTE COUNT: 12.57 x10E3/uL
  LYMPHOCYTE: 92%
  MEAN CORPUSCULAR HEMOGLOBIN: 23.63 pg
  MEAN CORPUSCULAR HEMOGLOBIN CONCENTRATION: 37.53 G/DL
  MEAN CORPUSCULAR VOLUME: 62.9 fL
  MONOCYTE: 0.67%
  NEUTROPHIL: 7%
  NUCLEATED RED BLOOD CELLS: 0 /100WBC
  PLATELET COUNT: 1125.67 x10E3/uL
  ALANINE AMINOTRANSFERASE: 29 u/L
  ALBUMIN: 4.23 G/DL
  ALKALINE PHOSPHATASE: 344 u/L
  ASPARTATE AMINOTRANSFERASE: 95.33 u/L
  BLOOD UREA NITROGEN: 18 mg/dL
  CARBON DIOXIDE: 25.67 mmol/L
  CHLORIDE: 101 MEQ/L
  CHOLESTEROL: 66 mg/dL
  CREATINE PHOSPHOKINASE: 781.33 u/L
  CREATININE: 0.22 mg/dL
  GLUCOSE: 147.33 mg/dL
  LACTATE DEHYDROGENASE: 248.33 u/L
  LIPASE: 10.33 u/L
  PHOSPHORUS: 12.2 mg/dL
  POTASSIUM: 5.97 MEQ/L
  SODIUM: 141.5 MEQ/L
  TOTAL BILIRUBIN: 0.2 mg/dL
  TOTAL PROTEIN: 6.1 G/DL
  URIC ACID: 1.43 mg/dL
[4]
  ABSOLUTE BASOPHIL: 0 CELLS/uL
  ABSOLUTE EOSINOPHIL: 49.33 CELLS/uL
  ABSOLUTE LYMPHOCYTE: 12972.67 CELLS/uL
  ABSOLUTE MONOCYTE: 95.67 CELLS/uL
  ABSOLUTE SEGMENTED NEUTROPHIL: 649 CELLS/uL
  BASOPHIL: 0%
  EOSINOPHIL: 0.33%
  ERYTHROCYTE COUNT: 5 x10E6/uL
  HEMATOCRIT: 29.63%
  HEMOGLOBIN: 11.47 G/DL
  LEUKOCYTE COUNT: 13.77 x10E3/uL
  LYMPHOCYTE: 94.33%
  MEAN CORPUSCULAR HEMOGLOBIN: 22.93 pg
  MEAN CORPUSCULAR HEMOGLOBIN CONCENTRATION: 38.7 G/DL
  MEAN CORPUSCULAR VOLUME: 59.27 fL
  MONOCYTE: 0.67%
  NEUTROPHIL: 4.67%
  NUCLEATED RED BLOOD CELLS: 0 /100WBC
  PLATELET COUNT: 1279 x10E3/uL
  ALANINE AMINOTRANSFERASE: 26.67 u/L
  ALBUMIN: 4.07 G/DL
  ALKALINE PHOSPHATASE: 306.67 u/L
  ASPARTATE AMINOTRANSFERASE: 81.33 u/L
  BLOOD UREA NITROGEN: 15.33 mg/dL
  CARBON DIOXIDE: 30.33 mmol/L
  CHLORIDE: 98.67 MEQ/L
  CHOLESTEROL: 73.67 mg/dL
  CREATINE PHOSPHOKINASE: 266 u/L
  CREATININE: 0.22 mg/dL
  GLUCOSE: 135.67 mg/dL
  LACTATE DEHYDROGENASE: 347 u/L
  LIPASE: 10 u/L
  PHOSPHORUS: 11.07 mg/dL
  POTASSIUM: 6.41 MEQ/L
  SODIUM: 142.17 MEQ/L
  TOTAL BILIRUBIN: 0.1 mg/dL
  TOTAL PROTEIN: 6 G/DL
  URIC ACID: 1.37 mg/dL
